Test results taken from patent US11897862B2 (Gilead Sciences, Inc., priority 2022, dated 2024).

Legend:
Type in all cases: cell-based
IKZF1 = biological target: T1, IKZF1 (Homo sapiens, UniProt Q13422+Q96SW2); assay: HEK293 HiBiT in vitro degradation of IKZF1; details: for Dmax: HEK293, HEK293 HiBiT; for Dmax / IKZF1 Dmax: maximum degradation at the highest concentration tested; for DC50 / IKZF1 Dmax: HEK293 HiBiT; for DC50: 18-24 hr incubation, normalized to DMSO control, read-out: IKZF1 EC50
T1 construct: expressed in transfected cells
In short: (§1)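 Flp-In T-REx HEK293 stable pools carry a single integrated copy of C-terminal HiBiT-tagged IKZF1, IKZF2 or SALL4 under a tetracycline operator, induced overnight at 37 °C with doxycycline ([…] final). Cells were then treated with serially diluted compounds for 18-24 h. Nano-Glo lytic luminescence gave EC50 and Dmax.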

IKZF2 [1] = biological target: T2, IKZF2 (Homo sapiens, UniProt Q96SW2+Q9UKS7); assay: Human whole blood IKZF2 degradation (flow cytometry, CD4/CD25/Foxp3+ Treg cells); parameters: endogenous in cells; details: 24 hrs incubation, IKZF2 MFI in CD4/CD25/Foxp3+ Treg cells, flow cytometry; for DC50: read-out: IKZF2 EC50
Description: In vitro IKZF2 potency was assessed in human whole blood using a fluorescence activated cell sorting assay. 50 μL of freshly collected blood from healthy human volunteers was incubated with Immunocult CD3/CD28 activator (Stemcell Technologies) and solution of testing compounds (serially-diluted) for 24 hrs hours at 37° C. in 384 well plates. The treated red blood cells were removed by adding lysis buffer (BD cat #558049) then the cells were fixed, permeabilized, and stained with anti-CD4 (BD cat #564419), anti-Foxp3 (Invitrogen cat #48-4777-42), anti-IKZF1 (Cell Signaling Tech. cat #33462S), and anti-IKZF2(Cell Signaling Tech. cat #65432S) antibodies. The median fluorescent intensity (MFI) of IKZF2 signal from CD4/CD25/Foxp3+ Treg cells and MFI of IKZF1 signal from CD4+ T cells were quantified in the same samples by flow cytometry using an Attune instrument. EC50 and Dmax of each compound was determined by plotting the MFI and DMSO treated wells were used as control. Asterisks (*) indicate examples for which data represents an average of n≥3 repeat experiments.
Target sequence in this assay (Q9UKS7 whole entry): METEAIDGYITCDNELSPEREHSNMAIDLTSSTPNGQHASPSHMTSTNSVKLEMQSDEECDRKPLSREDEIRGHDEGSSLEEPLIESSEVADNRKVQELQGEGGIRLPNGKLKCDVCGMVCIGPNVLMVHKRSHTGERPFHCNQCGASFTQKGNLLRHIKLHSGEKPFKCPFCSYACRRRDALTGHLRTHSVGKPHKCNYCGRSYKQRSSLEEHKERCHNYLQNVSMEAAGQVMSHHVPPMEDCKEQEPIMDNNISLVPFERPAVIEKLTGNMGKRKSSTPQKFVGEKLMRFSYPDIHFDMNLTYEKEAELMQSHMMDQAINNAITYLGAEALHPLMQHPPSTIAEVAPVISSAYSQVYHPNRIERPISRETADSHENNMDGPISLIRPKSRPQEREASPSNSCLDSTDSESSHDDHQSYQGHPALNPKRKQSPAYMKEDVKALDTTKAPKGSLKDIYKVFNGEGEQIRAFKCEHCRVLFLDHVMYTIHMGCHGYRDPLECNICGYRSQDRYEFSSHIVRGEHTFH
Target sequence in this assay (Q96SW2 whole entry): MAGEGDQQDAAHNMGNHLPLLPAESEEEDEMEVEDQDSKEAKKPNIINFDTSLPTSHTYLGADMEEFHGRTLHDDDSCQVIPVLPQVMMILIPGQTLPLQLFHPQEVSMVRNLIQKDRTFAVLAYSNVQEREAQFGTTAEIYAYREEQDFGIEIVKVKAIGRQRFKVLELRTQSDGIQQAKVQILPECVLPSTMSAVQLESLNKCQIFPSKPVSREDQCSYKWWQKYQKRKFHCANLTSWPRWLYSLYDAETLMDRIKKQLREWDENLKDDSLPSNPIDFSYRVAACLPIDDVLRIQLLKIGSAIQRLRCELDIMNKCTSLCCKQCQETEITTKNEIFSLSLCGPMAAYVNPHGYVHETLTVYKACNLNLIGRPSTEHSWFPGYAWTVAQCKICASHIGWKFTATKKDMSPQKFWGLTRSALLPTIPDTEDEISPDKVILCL
Target sequence in this assay (Q16531 whole entry partner): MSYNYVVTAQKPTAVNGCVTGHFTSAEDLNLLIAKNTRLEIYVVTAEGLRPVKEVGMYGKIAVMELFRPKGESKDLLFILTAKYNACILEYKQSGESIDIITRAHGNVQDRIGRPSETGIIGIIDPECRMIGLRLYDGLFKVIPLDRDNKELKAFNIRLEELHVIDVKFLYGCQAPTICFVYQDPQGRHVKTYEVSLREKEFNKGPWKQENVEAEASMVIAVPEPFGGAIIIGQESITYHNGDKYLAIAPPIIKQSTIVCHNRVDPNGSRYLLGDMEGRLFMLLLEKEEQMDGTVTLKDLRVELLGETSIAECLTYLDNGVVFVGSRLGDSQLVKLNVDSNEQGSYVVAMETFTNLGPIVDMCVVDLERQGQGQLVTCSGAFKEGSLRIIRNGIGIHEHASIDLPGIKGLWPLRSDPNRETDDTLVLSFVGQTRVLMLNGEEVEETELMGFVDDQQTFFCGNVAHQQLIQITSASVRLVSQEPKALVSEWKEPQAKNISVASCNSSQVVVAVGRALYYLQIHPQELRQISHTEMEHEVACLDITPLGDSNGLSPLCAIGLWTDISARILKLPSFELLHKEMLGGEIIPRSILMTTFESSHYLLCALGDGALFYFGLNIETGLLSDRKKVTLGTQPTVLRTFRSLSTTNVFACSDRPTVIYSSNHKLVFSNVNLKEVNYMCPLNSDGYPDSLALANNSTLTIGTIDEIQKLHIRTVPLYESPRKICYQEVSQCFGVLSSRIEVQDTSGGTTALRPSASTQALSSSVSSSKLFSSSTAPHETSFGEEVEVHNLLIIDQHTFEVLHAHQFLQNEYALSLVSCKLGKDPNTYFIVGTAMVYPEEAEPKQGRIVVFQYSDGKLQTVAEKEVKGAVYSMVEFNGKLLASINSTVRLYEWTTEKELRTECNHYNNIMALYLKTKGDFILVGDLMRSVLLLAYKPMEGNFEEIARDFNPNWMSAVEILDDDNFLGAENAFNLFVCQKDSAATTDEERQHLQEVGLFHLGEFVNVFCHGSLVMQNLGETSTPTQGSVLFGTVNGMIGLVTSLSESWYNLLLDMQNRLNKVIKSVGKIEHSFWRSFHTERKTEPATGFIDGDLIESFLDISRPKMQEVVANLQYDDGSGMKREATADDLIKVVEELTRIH

IKZF2 [2] = biological target: T2, IKZF2; assay: HEK293 HiBiT in vitro degradation of IKZF2; parameters: expressed in transfected cells; details: for DC50 / IKZF2 Dmax: HEK293 HiBiT; for DC50: 18-24 hr incubation, normalized to DMSO control, read-out: IKZF2 EC50; for IKZF2 Dmax / Dmax: maximum degradation at the highest concentration tested; for Dmax: HEK293, HEK293 HiBiT
In short: as §1
Target sequence in this assay (Q9UKS7 1-500 isoform Q9UKS7-2): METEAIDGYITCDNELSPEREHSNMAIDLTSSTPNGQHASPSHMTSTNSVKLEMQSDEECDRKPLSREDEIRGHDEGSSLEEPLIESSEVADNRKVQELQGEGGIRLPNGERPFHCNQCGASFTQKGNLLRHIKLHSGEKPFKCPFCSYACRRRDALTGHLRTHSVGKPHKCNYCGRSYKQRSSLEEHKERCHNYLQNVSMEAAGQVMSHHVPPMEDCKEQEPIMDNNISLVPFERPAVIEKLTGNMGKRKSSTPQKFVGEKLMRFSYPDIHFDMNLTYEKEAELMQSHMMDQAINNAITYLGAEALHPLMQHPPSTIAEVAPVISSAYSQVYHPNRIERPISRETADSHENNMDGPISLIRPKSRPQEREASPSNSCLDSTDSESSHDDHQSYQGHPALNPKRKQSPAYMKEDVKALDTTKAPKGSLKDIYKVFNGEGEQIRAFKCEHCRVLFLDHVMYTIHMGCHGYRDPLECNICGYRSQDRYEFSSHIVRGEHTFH
Target sequence in this assay (Q96SW2 whole entry): as the sequence (Q96SW2 whole entry) above
Target sequence in this assay (Q16531 whole entry partner): as the sequence (Q16531 whole entry partner) above

T1 sequence (Q13422 whole entry): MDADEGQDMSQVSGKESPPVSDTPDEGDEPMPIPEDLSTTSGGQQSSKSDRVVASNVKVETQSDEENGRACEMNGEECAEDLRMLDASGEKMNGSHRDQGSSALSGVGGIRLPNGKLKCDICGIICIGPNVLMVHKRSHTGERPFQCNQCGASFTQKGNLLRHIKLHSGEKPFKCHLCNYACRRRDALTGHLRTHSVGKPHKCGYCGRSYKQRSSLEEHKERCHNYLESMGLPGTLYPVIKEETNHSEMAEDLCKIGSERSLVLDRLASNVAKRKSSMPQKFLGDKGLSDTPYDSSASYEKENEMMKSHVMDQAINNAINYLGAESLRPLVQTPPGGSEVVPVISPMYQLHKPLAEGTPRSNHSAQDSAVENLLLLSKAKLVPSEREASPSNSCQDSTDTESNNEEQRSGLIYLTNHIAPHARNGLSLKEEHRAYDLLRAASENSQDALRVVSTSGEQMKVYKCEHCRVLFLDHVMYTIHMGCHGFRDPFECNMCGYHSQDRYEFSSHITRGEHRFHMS
T1 sequence (Q96SW2 whole entry): as the sequence (Q96SW2 whole entry) above
T1 sequence (Q16531 whole entry partner): as the sequence (Q16531 whole entry partner) above

Dmax (IKZF1) [%]	DC50 (IKZF1) [nM]	Dmax (IKZF2 [1]) [%]	DC50 (IKZF2 [1]) [nM]	DC50 (IKZF2 [2]) [nM]	IKZF2 Dmax (IKZF2 [2]) [%]	Dmax (IKZF2 [2]) [%]	IKZF1 Dmax (IKZF1) [%]	IKZF2 Dmax (IKZF2 [1]) [%]	Compound
30	117	100	4	2	97				CC(CC(F)(F)F)N[C@H]1CCCC[C@@H]1Cc1ccc2c(c1)CN(C1CCC(=O)NC1=O)C2=O (single isomer, unassigned) [Example 250]
35	213	98	2	1		98			COCC1CCC(N[C@H]2CCCC[C@@H]2Cc2ccc3c(c2)CN(C2CCC(=O)NC2=O)C3=O)CC1 (single isomer, unassigned) [Example 251]
	105		1	3	98		31	97	COCC1CCC(N[C@H]2CCCC[C@@H]2Cc2ccc3c(c2)CN(C2CCC(=O)NC2=O)C3=O)CC1 (single isomer, unassigned) [Example 252]
32	55	98	6	4		97			O=C1CCC(N2Cc3cc(C[C@H]4CCCC[C@@H]4NC4CC5CC5C4)ccc3C2=O)C(=O)N1 (single isomer, unassigned) [Example 266]
44	109	97	2	4		98			N#CC1CCC(N[C@H]2CCCC[C@@H]2Cc2ccc3c(c2)CN(C2CCC(=O)NC2=O)C3=O)CC1 (single isomer, unassigned) [Example 267]
	40	97	2	1	98		54		O=C1CCC(N2Cc3cc(C[C@H]4CCCC[C@@H]4NC4CCC5(CC4)CC5(F)F)ccc3C2=O)C(=O)N1 (single isomer, unassigned) [Example 272]
37	114	95	2	3		98			COC1CCC(N[C@H]2CCCC[C@@H]2Cc2ccc3c(c2)CN(C2CCC(=O)NC2=O)C3=O)CC1 (single isomer, unassigned) [Example 277]
30	43	98	5	2		96			O=C1CCC(N2Cc3cc(C[C@H]4CCCC[C@@H]4NC4CCC5(CC5)C4)ccc3C2=O)C(=O)N1 (single isomer, unassigned) [Example 281]
	399		5	6	97		32	92	CC(N[C@H]1CCCC[C@@H]1Cc1ccc2c(c1F)CN(C1CCC(=O)NC1=O)C2=O)C1CCOCC1 (single isomer, unassigned) [Example 288]
	> 1000	96	2	2		98			CCC(C)N[C@H]1CCCC[C@@H]1Cc1ccc2c(c1)CN(C1CCC(=O)NC1=O)C2=O (single isomer, unassigned) [Example 299]
36	462	98	2	4		99			CC(C)N[C@H]1CCCC[C@@H]1Cc1ccc2c(c1)CN(C1CCC(=O)NC1=O)C2=O (stereo partly drawn) [Example 7, 3-(5-(((1R,2S)-2-(isopropylamino)cyclohexyl)methyl)-1-oxoisoindolin-2-yl)piperidine-2,6-dione]
14	374	98	6	6		95			CCC(CC)N[C@H]1CCCC[C@@H]1Cc1ccc2c(c1)CN(C1CCC(=O)NC1=O)C2=O (stereo partly drawn) [Example 23, 3-(1-oxo-5-(((1R,2S)-2-(pentan-3-ylamino)cyclohexyl)methyl)isoindolin-2-yl)piperidine-2,6-dione]
25	345	89	8	10		91			O=C1CCC(N2Cc3cc(C[C@H]4CCCC[C@@H]4NCC4CC(F)(F)C4)ccc3C2=O)C(=O)N1 (stereo partly drawn) [Example 24, 3-(5-(((1R,2S)-2-(((3,3-difluorocyclobutyl)methyl)amino)cyclohexyl)methyl)-1-oxoisoindolin-2-yl)piperidine-2,6-dione]
56	327	99	3	2		97			O=C1CCC(N2Cc3cc(C[C@H]4CCCC[C@@H]4NC4CCC5(CC4)CC5)ccc3C2=O)C(=O)N1 (stereo partly drawn) [Example 28, 3-(1-oxo-5-(((1R,2S)-2-(spiro[2.5]octan-6-ylamino)cyclohexyl)methyl)isoindolin-2-yl)piperidine-2,6-dione]
	> 1000	95	5	6		96			O=C1CCC(N2Cc3cc(C[C@H]4CCCC[C@@H]4NC4CCCC4)ccc3C2=O)C(=O)N1 (stereo partly drawn) [Example 52, 3-(5-(((1R,2S)-2-(cyclopentylamino)cyclohexyl)methyl)-1-oxoisoindolin-2-yl)piperidine-2,6-dione]
44	68	97	8	14		96			CC(C)(C)CCN[C@H]1CCCC[C@@H]1Cc1ccc2c(c1)CN(C1CCC(=O)NC1=O)C2=O (stereo partly drawn) [Example 56, 3-(5-(((1R,2S)-2-((3,3-dimethylbutyl)amino)cyclohexyl)methyl)-1-oxoisoindolin-2-yl)piperidine-2,6-dione]
	> 1000	91	19	19		89			O=C1CCC(N2Cc3cc(C[C@H]4CCCC[C@@H]4NCC45CC(C4)C5)ccc3C2=O)C(=O)N1 (stereo partly shown) [Example 63]
55	226	93	3	4		96			O=C1CCC(N2Cc3cc(C[C@H]4CCCC[C@@H]4NC4CCOCC4)ccc3C2=O)C(=O)N1 (stereo partly shown) [Example 74]
33	98	93	5	5		94			O=C1CCC(N2Cc3cc(C[C@H]4CCCC[C@@H]4NC4CC5(CC5)C4)ccc3C2=O)C(=O)N1 (stereo partly drawn) [Example 79, 3-(1-oxo-5-(((1R,2S)-2-(spiro[2.3]hexan-5-ylamino)cyclohexyl)methyl)isoindolin-2-yl)piperidine-2,6-dione]
28	327	89	4	7		94			CC1(C)CC(N[C@H]2CCCC[C@@H]2Cc2ccc3c(c2)CN(C2CCC(=O)NC2=O)C3=O)C1 (stereo partly drawn) [Example 82, 3-(5-(((1R,2S)-2-((3,3-dimethylcyclobutyl)amino)cyclohexyl)methyl)-1-oxoisoindolin-2-yl)piperidine-2,6-dione]
40	70	96	2	2		97			CC(C)N[C@H]1CCCC[C@@H]1Cc1ccc2c(c1F)CN(C1CCC(=O)NC1=O)C2=O (stereo partly drawn) [Example 85, 3-(4-fluoro-5-(((1R,2S)-2-(isopropylamino)cyclohexyl)methyl)-1-oxoisoindolin-2-yl)piperidine-2,6-dione]
28	64	97	5	6		97			CC(C)(C)CCN[C@H]1CCCC[C@@H]1Cc1ccc2c(c1F)CN(C1CCC(=O)NC1=O)C2=O (stereo partly drawn) [Example 89, 3-(5-(((1R,2S)-2-((3,3-dimethylbutyl)amino)cyclohexyl)methyl)-4-fluoro-1-oxoisoindolin-2-yl)piperidine-2,6-dione]
	> 10000	89	11	16		88			O=C1CCC(N2Cc3cc(C[C@H]4OCCC[C@@H]4NC4CCCCC4)ccc3C2=O)C(=O)N1 (stereo partly drawn) [Example 95, 3-(5-(((2R,3S)-3-(cyclohexylamino)tetrahydro-2H-pyran-2-yl)methyl)-1-oxoisoindolin-2-yl)piperidine-2,6-dione]
32	39	95	6	5		98			O=C1CCC(N2Cc3cc(C[C@H]4CCCC[C@@H]4NC4CC5(C4)CC(F)(F)C5)ccc3C2=O)C(=O)N1 (stereo partly shown) [Example 101]
	> 1000	96	4	3		95			CC(N[C@H]1CCCC[C@@H]1Cc1ccc2c(c1)CN(C1CCC(=O)NC1=O)C2=O)C1CCC1 (stereo partly shown) [Example 103]
